In patent publication US20240300958A1, “COMPOUNDS AND THE USES AND PHARMACEUTICAL COMPOSITIONS THEREOF” (BEIJING YOUZHUJU NETWORK TECHNOLOGY CO. LTD., priority 2023, published 2024):

How the values were obtained:
DDR1 = DDR1 (Homo sapiens (Human), UniProt Q08345); experiment: DDR1 kinase inhibition assay (FAM-labeled peptide), IC50; type: biochemical
Method: 1× kinase base buffer (50 mM HEPES, pH 7.5, 0.0015% Brij-35) and a stop buffer (100 mM HEPES, pH 7.5, 0.015% Brij-35, 0.2% Coating Reagent #3, 50 mM EDTA) were prepared for testing kinases.
The compounds were diluted with 100% DMSO to 100 times the highest final inhibitor concentration required in the reaction. 100 μl of dilution of the compound was transferred to wells of a 96-well plate. For example, 100000 nM solution of the compound in DMSO was prepared in this step in case that an inhibitor concentration of 1000 nM is required. 100 μl of 100% DMSO was added to two empty wells of a 96-well plate for no compound control and no enzyme control. This plate was labeled as the source plate. A new 96-well plate with 5 μl of compound transferred from the source plate is used as an intermediate plate. 95 μl of 1× kinase buffer was added to each well of the intermediate plate. The compounds in the intermediate plate was mixed on a shaker for 10 minutes.
5 μl of sample in each well from the 96-well intermediate plate was transferred to the 384-well plate in duplicate. For example, well A1 of the 96-well plate was transferred to wells A2 and A1 of the 384-well plate, and well A2 of the 96-well plate was transferred to wells A3 and A4 of the 384-well plate, and so forth. 2.5× enzyme solution was prepared: 1× kinase basal buffer with added kinase. 2.5× peptide solution was prepared: 1× kinase basal buffer with added FAM-labeled peptide and ATP. To an assay plate already contained 5 μl of 10% dimethyl sulfoxide compound, 2.5× enzyme solution was transferred, and each well of the 384-well assay plate was added 10 μl of 2.5× enzyme solution. After incubation at room temperature for 10 minutes, 2.5× peptide solution was transferred to the assay plate. Each well of the 384-well assay plate was added 10 μl of 2.5× peptide solution. Kinase reaction and termination: incubation at 28° C. for a specified period followed by the addition of 25 μl stop buffer to stop the reaction. The data was read and collected.

[1] = target: phosphorylated DDR1 (p-DDR1) (Homo sapiens (Human), UniProt Q08345); experiment: Inhibition of phosphorylated DDR1 (p-DDR1) in T47D cells stimulated with rat tail collagen (western blot); type: cell-based
Sequence of phosphorylated DDR1 (p-DDR1) (Q08345 19-913): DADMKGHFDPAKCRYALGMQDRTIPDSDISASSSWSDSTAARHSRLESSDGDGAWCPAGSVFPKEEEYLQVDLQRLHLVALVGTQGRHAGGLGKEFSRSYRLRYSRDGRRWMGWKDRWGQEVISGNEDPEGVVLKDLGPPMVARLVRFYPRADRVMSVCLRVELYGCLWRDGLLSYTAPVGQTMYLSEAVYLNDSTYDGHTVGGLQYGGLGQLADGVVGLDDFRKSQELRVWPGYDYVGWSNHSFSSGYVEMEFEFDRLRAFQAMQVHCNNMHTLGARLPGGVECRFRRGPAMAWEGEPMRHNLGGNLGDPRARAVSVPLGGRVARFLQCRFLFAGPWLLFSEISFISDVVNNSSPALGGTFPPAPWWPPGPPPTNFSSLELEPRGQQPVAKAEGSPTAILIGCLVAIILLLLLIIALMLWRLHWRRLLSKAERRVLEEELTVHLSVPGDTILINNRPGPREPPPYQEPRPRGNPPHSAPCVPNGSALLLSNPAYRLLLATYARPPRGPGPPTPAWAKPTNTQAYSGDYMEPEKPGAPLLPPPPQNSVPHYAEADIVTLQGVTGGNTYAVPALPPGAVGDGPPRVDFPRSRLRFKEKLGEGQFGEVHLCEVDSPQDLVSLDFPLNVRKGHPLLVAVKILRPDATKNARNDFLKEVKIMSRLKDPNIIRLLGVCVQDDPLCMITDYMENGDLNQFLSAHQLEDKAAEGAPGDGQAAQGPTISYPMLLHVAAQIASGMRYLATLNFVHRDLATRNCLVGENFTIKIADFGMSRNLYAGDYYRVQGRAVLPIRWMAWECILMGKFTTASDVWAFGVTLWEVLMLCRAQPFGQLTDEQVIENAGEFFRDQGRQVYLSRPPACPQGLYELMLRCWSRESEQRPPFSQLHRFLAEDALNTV
Method: Human breast ductal carcinoma cell line T47D cells were inoculated in a 6-well plate and incubated overnight at 37° C. and 5% CO2. After the cells are prepared, 2 μL of Compound C1 (DMSO solution of gradient concentrations) was added to a cell plate which was incubated at 37° C. and 5% CO2 for 24 hours. Rat tail collagen (capable of stimulating DDR1 phosphorylation) was added to the cell plate followed by incubation for 2 hours at 37° C. and 5% CO2. Harvest of cell lysates: culture medium was aspirated as much as possible at the end of the culture until the wells were almost dry. 200 μL of ice-cold lysis buffer was added. Lysate was collected into a 1.5 mL eppendorf tube through scraping. Brief vortex was followed by spin at 12000 rpm for 15 minutes in a refrigerated centrifuge. 5× protein electrophoresis loading buffer was added and then the sample was boiled. The sample supernatant was added to a SDS-PAGE gel, followed by electrophoresis, electrotransfer, blocking, primary antibody (anti-phospho-DDR1 antibody and anti-GAPDH antibody) incubation, washing, secondary antibody incubation, washing, and fluorescence development.

[2] = system: α-smooth muscle actin (α-SMA) expression; experiment: Inhibition of DDR1-mediated lung fibrosis (α-SMA expression) in hTGFβ1-stimulated MRC-5 cells (western blot); type: cell-based, Human; conditions: for Ratio of α-SMA to GAPDH / α-SMA signal: hTGFβ1 2.5 ng/ml
Method: Human embryonic lung fibroblast MRC-5 cells were inoculated in a 6-well plate and incubated overnight at 37° C. and 5% CO2. 2 μL of compound C1 (gradient concentration in DMSO solution) was added to a cell plate with prepared cells, and was incubated overnight at 37° C. and 5% CO2. hTGFβ1 (which can stimulate DDR1-mediated lung fibrosis manifested by up-regulation of α-smooth muscle actin (α-SMA) expression) was added to the cell plate and incubated at 37° C. and 5% CO2 for 2 hours. Harvest of cell lysates: culture medium was aspirated as much as possible at the end of the culture until the wells were almost dry. 200 μL of ice-cold lysis buffer was added. Lysate was collected into a 1.5 mL eppendorf tube through scraping. Brief vortex was followed by spinning at 12000 rpm for 15 minutes in a refrigerated centrifuge. 5× protein electrophoresis loading buffer was added and then the sample was boiled. The sample supernatant was added to a SDS-PAGE gel, followed by electrophoresis, electrotransfer, blocking, primary antibody (anti-α-SMA antibody and anti-GAPDH antibody) incubation, washing, secondary antibody incubation, washing, and fluorescence development.

Sequence of DDR1 (Q08345 other isoform, or with tags, fused parts or gaps isoform Q08345-2): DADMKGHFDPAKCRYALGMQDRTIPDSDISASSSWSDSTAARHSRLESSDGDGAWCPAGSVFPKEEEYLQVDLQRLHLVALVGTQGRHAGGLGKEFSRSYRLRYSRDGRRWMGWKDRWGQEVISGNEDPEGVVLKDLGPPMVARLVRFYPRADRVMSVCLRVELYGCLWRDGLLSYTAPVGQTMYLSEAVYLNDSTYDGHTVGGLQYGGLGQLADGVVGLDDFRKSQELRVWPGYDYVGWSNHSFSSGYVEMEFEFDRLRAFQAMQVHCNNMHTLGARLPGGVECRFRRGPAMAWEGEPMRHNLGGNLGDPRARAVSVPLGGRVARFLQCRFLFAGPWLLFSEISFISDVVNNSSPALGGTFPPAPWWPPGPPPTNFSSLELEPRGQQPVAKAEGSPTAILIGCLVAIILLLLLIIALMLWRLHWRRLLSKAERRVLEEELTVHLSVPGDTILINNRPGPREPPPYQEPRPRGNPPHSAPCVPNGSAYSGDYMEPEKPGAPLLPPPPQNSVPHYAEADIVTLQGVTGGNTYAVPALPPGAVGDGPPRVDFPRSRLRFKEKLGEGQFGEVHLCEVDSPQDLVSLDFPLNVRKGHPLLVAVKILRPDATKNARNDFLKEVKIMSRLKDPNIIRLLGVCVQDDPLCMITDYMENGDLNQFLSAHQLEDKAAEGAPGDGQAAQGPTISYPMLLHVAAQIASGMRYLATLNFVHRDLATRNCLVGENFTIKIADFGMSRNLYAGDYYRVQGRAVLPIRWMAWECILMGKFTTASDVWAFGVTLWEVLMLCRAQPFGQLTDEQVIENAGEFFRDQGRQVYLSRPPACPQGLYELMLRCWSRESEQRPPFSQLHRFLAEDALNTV

## Cc1ccc(C(=O)Nc2ccccn2)cc1C#Cc1cnc2cc(C3=CCCCC3)cnn12 [Compound C1, 3-{2-[7-(cyclohex-1-en-1-yl)imidazo[1,2-b]pyridazin-3-yl]ethynyl}-4-methyl-N-(pyridin-2-yl)benzamide]
DDR1
  IC50: 23 nM
[1]
  Inhibition of the phosphorylation of DDR1 at the cellular level (in words): can inhibit the phosphorylation of DDR1 at the cellular level
[1]; compound C1 1.5 nM
  Ratio of p-DDR1 to GAPDH: 0.3282
  inhibition at 0.0015 µM: 51.5%
  p-DDR1 signal: 490770
[1]; compound C1 4.6 nM
  Ratio of p-DDR1 to GAPDH: 0.2221
  inhibition at 0.0046 µM: 67.7%
  p-DDR1 signal: 350490
[1]; compound C1 13.7 nM
  Ratio of p-DDR1 to GAPDH: 0.3020
  inhibition at 0.0137 µM: 55.5%
  p-DDR1 signal: 417870
[1]; compound C1 41.1 nM
  Ratio of p-DDR1 to GAPDH: 0.4145
  inhibition at 0.0411 µM: 38.4%
  p-DDR1 signal: 583470
[1]; compound C1 123 nM
  Ratio of p-DDR1 to GAPDH: 0.2107
  inhibition at 0.123 µM: 69.4%
  p-DDR1 signal: 313140
[1]; compound C1 370 nM
  Ratio of p-DDR1 to GAPDH: 0.1244
  inhibition at 0.37 µM: 82.5%
  p-DDR1 signal: 164340
[1]; compound C1 1111 nM
  Ratio of p-DDR1 to GAPDH: 0.0363
  inhibition at 1.111 µM: 95.9%
  p-DDR1 signal: 51870
[1]; compound C1 3333 nM
  Ratio of p-DDR1 to GAPDH: 0.0183
  inhibition at 3.333 µM: 98.7%
  p-DDR1 signal: 27360
[1]; compound C1 10000 nM
  Ratio of p-DDR1 to GAPDH: 0.0094
  inhibition at 10 µM: 100%
  p-DDR1 signal: 14730
[2]
  Inhibition of DDR1-mediated lung fibrosis at the cellular level (in words): can inhibit DDR1-mediated lung fibrosis at the cellular level
[2]; Homo sapiens, MRC5, hTGFβ1 2.5 ng/ml, compound C1 2.44 nM
  inhibition at 0.00244 µM: 103%
[2]; Homo sapiens, MRC5, hTGFβ1 2.5 ng/ml, compound C1 9.77 nM
  inhibition at 0.00977 µM: 103%
[2]; Homo sapiens, MRC5, hTGFβ1 2.5 ng/ml, compound C1 39.06 nM
  inhibition at 0.03906 µM: 103%
[2]; Homo sapiens, MRC5, hTGFβ1 2.5 ng/ml, compound C1 156.25 nM
  inhibition at 0.15625 µM: 109%
[2]; Homo sapiens, MRC5, hTGFβ1 2.5 ng/ml, compound C1 625.00 nM
  inhibition at 0.625 µM: 48.2%
[2]; Homo sapiens, MRC5, hTGFβ1 2.5 ng/ml, compound C1 2500.00 nM
  inhibition at 2.5 µM: 11.7%
[2]; compound C1 2.44 nM
  Ratio of α-SMA to GAPDH: 1.1612
  α-SMA signal: 1390356
[2]; compound C1 9.77 nM
  Ratio of α-SMA to GAPDH: 1.1646
  α-SMA signal: 1386165
[2]; compound C1 39.06 nM
  Ratio of α-SMA to GAPDH: 1.1681
  α-SMA signal: 1304919
[2]; compound C1 156.25 nM
  Ratio of α-SMA to GAPDH: 1.2342
  α-SMA signal: 1353660
[2]; compound C1 625.00 nM
  Ratio of α-SMA to GAPDH: 0.5459
  α-SMA signal: 629772
[2]; compound C1 2500.00 nM
  Ratio of α-SMA to GAPDH: 0.1330
  α-SMA signal: 4686
